In publication PMC4752590, “Reciprocal effects of capsaicin and menthol on thermosensation through regulated activities of TRPV1 and TRPM8” (The Journal of Physiological Sciences : JPS, 2015):

Key:
[1] = target: T1, hTRPV1 (transient receptor potential vanilloid 1) (Homo sapiens, UniProt Q8NER1); assay: whole-cell patch clamp in HEK293T; inhibition of […] capsaicin-evoked current; type: cell-based
T1 construct: gene TRPV1; Full-length

[2] = target: T2, hTRPM8 (transient receptor potential melastatin 8) (Homo sapiens, UniProt Q7Z2W7); assay: whole-cell patch clamp in HEK293T; inhibition of […] menthol-evoked current; type: cell-based
T2 construct: gene TRPM8; Full-length
T2 sequence (Q7Z2W7 whole entry): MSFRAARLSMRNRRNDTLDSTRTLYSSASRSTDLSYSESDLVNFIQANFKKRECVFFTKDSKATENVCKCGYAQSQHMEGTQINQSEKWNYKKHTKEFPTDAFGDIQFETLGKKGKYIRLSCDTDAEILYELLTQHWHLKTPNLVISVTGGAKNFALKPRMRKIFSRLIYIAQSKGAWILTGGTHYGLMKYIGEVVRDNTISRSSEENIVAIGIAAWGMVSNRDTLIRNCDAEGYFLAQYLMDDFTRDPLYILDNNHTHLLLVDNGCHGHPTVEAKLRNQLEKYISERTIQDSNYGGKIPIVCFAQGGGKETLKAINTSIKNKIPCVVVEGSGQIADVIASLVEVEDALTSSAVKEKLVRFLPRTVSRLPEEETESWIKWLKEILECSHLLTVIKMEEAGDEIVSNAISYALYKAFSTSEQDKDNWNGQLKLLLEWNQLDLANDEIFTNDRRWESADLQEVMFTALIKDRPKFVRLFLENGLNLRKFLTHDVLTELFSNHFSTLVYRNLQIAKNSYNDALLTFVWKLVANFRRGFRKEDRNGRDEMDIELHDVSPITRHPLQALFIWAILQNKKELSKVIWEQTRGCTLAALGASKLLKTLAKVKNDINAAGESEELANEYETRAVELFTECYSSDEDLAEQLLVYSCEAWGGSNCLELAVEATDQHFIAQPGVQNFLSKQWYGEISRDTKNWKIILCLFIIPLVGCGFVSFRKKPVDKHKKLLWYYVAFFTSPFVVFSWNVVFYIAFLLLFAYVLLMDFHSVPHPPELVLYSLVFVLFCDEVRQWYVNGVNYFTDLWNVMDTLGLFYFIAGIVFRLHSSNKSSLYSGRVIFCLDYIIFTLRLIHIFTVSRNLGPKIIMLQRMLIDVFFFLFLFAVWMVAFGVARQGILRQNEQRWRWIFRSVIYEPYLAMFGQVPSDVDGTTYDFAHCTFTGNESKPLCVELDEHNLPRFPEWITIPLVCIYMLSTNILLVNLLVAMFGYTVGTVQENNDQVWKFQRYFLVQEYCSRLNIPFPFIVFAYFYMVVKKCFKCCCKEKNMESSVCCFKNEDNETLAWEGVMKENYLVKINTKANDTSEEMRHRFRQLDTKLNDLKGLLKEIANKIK

T1 sequence (Q8NER1 whole entry): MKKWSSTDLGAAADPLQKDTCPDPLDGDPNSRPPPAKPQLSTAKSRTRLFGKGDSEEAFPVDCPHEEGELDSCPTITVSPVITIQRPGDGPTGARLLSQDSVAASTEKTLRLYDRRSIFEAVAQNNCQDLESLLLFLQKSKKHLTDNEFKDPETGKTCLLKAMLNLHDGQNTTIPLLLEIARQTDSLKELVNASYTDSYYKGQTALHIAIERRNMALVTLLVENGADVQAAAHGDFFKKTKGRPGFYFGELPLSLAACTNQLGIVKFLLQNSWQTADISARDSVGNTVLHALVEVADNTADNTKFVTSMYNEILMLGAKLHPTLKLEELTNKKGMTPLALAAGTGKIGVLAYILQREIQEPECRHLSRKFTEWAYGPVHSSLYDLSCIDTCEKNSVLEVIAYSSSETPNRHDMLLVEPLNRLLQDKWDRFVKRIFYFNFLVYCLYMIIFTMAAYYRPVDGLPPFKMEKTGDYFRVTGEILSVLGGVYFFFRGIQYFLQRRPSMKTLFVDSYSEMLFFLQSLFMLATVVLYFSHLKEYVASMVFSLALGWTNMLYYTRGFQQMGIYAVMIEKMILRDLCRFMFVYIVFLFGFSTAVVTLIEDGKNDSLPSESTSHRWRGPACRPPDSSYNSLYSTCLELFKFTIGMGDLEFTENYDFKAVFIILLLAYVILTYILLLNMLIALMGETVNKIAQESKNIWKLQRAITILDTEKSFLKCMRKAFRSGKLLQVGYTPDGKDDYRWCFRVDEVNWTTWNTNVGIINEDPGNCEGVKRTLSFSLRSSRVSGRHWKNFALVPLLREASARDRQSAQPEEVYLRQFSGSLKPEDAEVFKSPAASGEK

| Compound | IC50 [1] [µM] | IC50 [2] [µM] |
| --- | --- | --- |
| CC1CCC(C(C)C)C(O)C1 (centres unmarked) [menthol] | 1200 ± 200 |  |
| COc1cc(CNC(=O)CCCC/C=C/C(C)C)ccc1O [capsaicin] |  | 39.9 ± 6.4 |
